From PubChem BioAssay AID230 (DTP/NCI, 2004)
Values joined by “and” are separate entries in the source; they are usually repeats but may differ in a detail not shown here. Equal values may be shown once. Toxic doses and inconclusive results are not listed. The calls were made as follows: active = survival T/C of 150% or more; inactive = T/C below 125% in these data.

System: C3H/He mice, Gardner lymphosarcoma 6C3HED ip, survival T/C
Experiment: NCI In Vivo Anticancer Drug Screen. Data for tumor model Lymphosarcoma Gardner 6C3HED (intraperitoneal) in C3H/He mice
Conditions: endpoint: survival time, mean or median, higher = longer survival
Method: The antitumor activity of compounds was measured in mice bearing transplantable tumors. Survival or tumor size were measured and the results are expressed as the measurement made in the treated group (T) divided by the measurement made in the vehicle treated control group (C). The tumor model used in this assay is Lymphosarcoma Gardner 6C3HED (intraperitoneal) in C3H/He mice

Measured: T/C

CCC(=O)O[C@H]1CC[C@H]2[C@@H]3CCC4=CC(=O)CC[C@]4(C)[C@H]3CC[C@]12C
inactive: dose: 62.5 mg/kg/injection, schedule: Q01DX010 (sc), vehicle: steriod suspending solution 90 % of control | dose: 125.0 mg/kg/injection, schedule: Q01DX010 (sc), vehicle: steriod suspending solution 90 % of control | dose: 250.0 mg/kg/injection, schedule: Q01DX010 (sc), vehicle: steriod suspending solution 96 % of control | dose: 500.0 mg/kg/injection, schedule: Q01DX010 (sc), vehicle: steriod suspending solution 100 % of control

C[C@]12C=CC(=O)C=C1CC[C@@H]1[C@@H]2[C@@H](O)C[C@@]2(C)[C@H]1CC[C@]2(O)C(=O)CO
inactive: dose: 12.5 mg/kg/injection, schedule: Q01DX010 (sc), vehicle: steriod suspending solution 95 % of control and 100 % of control | dose: 25.0 mg/kg/injection, schedule: Q01DX010 (sc), vehicle: steriod suspending solution 90 % of control and 110 % of control | dose: 50.0 mg/kg/injection, schedule: Q01DX010 (sc), vehicle: steriod suspending solution 95 % of control and 105 % of control | dose: 100.0 mg/kg/injection, schedule: Q01DX010 (sc), vehicle: steriod suspending solution 95 % of control and 110 % of control

NC(=O)n1cccn1
inactive: dose: 25.0 mg/kg/injection, schedule: Q01DX010 (ip), vehicle: saline 89 % of control | dose: 50.0 mg/kg/injection, schedule: Q01DX010 (ip), vehicle: saline 96 % of control | dose: 100.0 mg/kg/injection, schedule: Q01DX010 (ip), vehicle: saline 96 % of control | dose: 200.0 mg/kg/injection, schedule: Q01DX010 (ip), vehicle: saline 100 % of control
